The subject of series [1] is human cervical cancer HeLa cells. The series can be described thus: MTT in vitro cytotoxicity, HeLa. As to conditions: for cytotoxicity compared to cisplatin: HeLa cells; for IC50: HeLa, 72 h incubation, read-out: IC50 values against HeLa. The format is cell-based. As to the method:
(§1) Solutions of Pt(II) complexes of selenone 1-7 and cisplatin at concentrations of 1.0 μM, 5.0 μM, 10.0 μM, 25.0 μM, and 50.0 μM were prepared in Dulbecco modified eagle medium (DMEM). The human cervical cancer cell line HeLa and human breast cancer cell line MDA-231 were seeded and maintained in quadruplicate in a 96-well tissue culture plate at 5×10^4 cells per well in 200 μL of the same medium. The cancer cells were incubated for 24 hours before treatment. All compounds were dissolved in 50% DMSO. Therefore DMSO was used as a negative control. The final DMSO concentration, in each well, was less than 0.1%. The cancer cells were treated with platinum complexes of compounds 1-7 and cisplatin, and the resulting cultures were incubated for 72 h. The medium of wells was discarded and 100 μL DMEM containing (5 mg/mL) MTT (3-(4,5-dimethylthiazol-2-yl)-2,5-diphenyltetrazolium bromide) was added to each well and the cultures incubated in a CO2 incubator at 37° C. in the dark for 4 hrs. After incubation, a purple colored formazan (artificial chromogenic dye, a product of the reduction of water […] tetrazolium salts e.g., MTT by dehydrogenases and reductases) in the cells is produced and appeared as dark crystals in the bottom of the wells. The medium of culture was discarded from each well carefully to avoid disruption of the monolayer. Isopropanol (100 μL) was added in each well. The solution was thoroughly mixed in the wells to dissolve the formazan crystals which results in a purple solution. The absorbance of the 96-well plate was measured at 570 nm with Mithras 2LB943 multimode microplate reader against reagent blank.
(§2) In vitro cytotoxicity of the platinum complexes of compounds 1-7 and cisplatin it DMSO were evaluated by the MTT assay against two human cancer cells namely, human cervical cancer HeLa cells and human breast cancer MDA-231 cells. The results of cytotoxicity are expressed, in terms of IC50 and listed m Table 7. The survival of the cells as a function of concentration of the platinum complexes of compounds 1-7 are graphically presented in FIGS. 4A and 4B. […] Recently, the anticancer properties of some other platinum(II) complexes of heterocyclic selenones have been reported [Altoum et al J. Coord. Chem. 70 (2017) 1020-1031; and. Altoum et al. Polyhedron, 128, 2-8 (2017), 42].

The test system of series [2] is human breast cancer MDA-231 cells. Nature of the series: MTT in vitro cytotoxicity, MDA-231. The format is cell-based. The following applies: for cytotoxicity compared to cisplatin: MDA-231 (MDA-321 [sic]), MTT; for IC50: MDA-231, MTT, 72 h incubation, read-out: IC50 values against MDA-231. As to the method: as §1, §2
For a further series, the system named is MCF7 cell line. The series can be described thus: MTT in vitro cytotoxicity, cell line MCF7. The format is cell-based, human.
In the next series the test system is MCF7 cells. As to conditions: read-out: IC50, in vitro cytotoxicity against MCF7 cells, Mustafa (2015) and (2014); cited from earlier work.

One may read the IC50 as the concentration at which inhibition is half-maximal. As for `N.N.NC(N)=[Se].NC(N)=[Se].O=[N+]([O-])[O-].O=[N+]([O-])[O-].[Pt+2]` [Complex 1, [Pt(NH3)2(Seu)2](NO3)2], in series [1], the “cytotoxicity compared to cisplatin” value is “enhanced cytotoxicity” and the IC50 was found to be 3.1 µM. In series [2], the “cytotoxicity compared to cisplatin” value is recorded as “enhanced cytotoxicity” and the half-inhibitory concentration (IC50) was 4.3 µM.
On to `CNC(=[Se])NC.CNC(=[Se])NC.N.N.O=[N+]([O-])[O-].O=[N+]([O-])[O-].[Pt+2]` [Complex 2, [Pt(NH3)2(Me2Seu)2](NO3)2], for which the “cytotoxicity compared to cisplatin” value is on record as “more cytotoxic than cisplatin” in series [1] and “less active” in the series on MCF7 cell line. The results for the IC50 in series [1] and in series [2] were 2.3 µM and 7.4 µM, respectively.
On the same counts, the results for `N.N.O=[N+]([O-])[O-].O=[N+]([O-])[O-].[Pt+2].[Se]=C1NCCN1.[Se]=C1NCCN1` [Complex 3, [Pt(NH3)2(ImSe)2](NO3)2] are “comparable cytotoxicity”, “less active”, 3.7 µM and 9.5 µM.
For the compound `CCN1CCNC1=[Se].CCN1CCNC1=[Se].N.N.O=[N+]([O-])[O-].O=[N+]([O-])[O-].[Pt+2]` [Complex 4, [Pt(NH3)2(EtImSe)2](NO3)2], the “cytotoxicity compared to cisplatin” value in series [1] and in series [2] was “enhanced cytotoxicity” each time. The figures for the IC50 in series [1] and in series [2] were 2.1 µM and 4.4 µM, respectively.
Turning to `CCCN1CCNC1=[Se].CCCN1CCNC1=[Se].N.N.O=[N+]([O-])[O-].O=[N+]([O-])[O-].[Pt+2]` [Complex 5, trans-[Pt(NH3)2(PrImSe)2](NO3)2], the IC50 is 6.9 µM in series [1] and 4.7 µM in series [2]. Further, the “cytotoxicity compared to cisplatin” value with MCF7 cell line is given as “greater cytotoxicity than cisplatin”.
As for `CC(C)N1CCNC1=[Se].CC(C)N1CCNC1=[Se].N.N.O=[N+]([O-])[O-].O=[N+]([O-])[O-].[Pt+2]` [Complex 6], the “cytotoxicity compared to cisplatin” value in series [1] and in series [2] was “enhanced cytotoxicity” in each case. Further, the IC50 is 3.1 µM in series [1] and 5.7 µM in series [2].
In the case of `N.N.O=[N+]([O-])[O-].O=[N+]([O-])[O-].[Pt+2].[Se]=C1NCCCCN1.[Se]=C1NCCCCN1` [Complex 7, [Pt(NH3)2(DiapSe)2](NO3)2], the concentration for half-maximal inhibition (IC50) stood at 5.4 µM in series [1] and 5.3 µM in series [2].
Take `S=C1NCCCN1.S=C1NCCCN1.S=C1NCCCN1.S=C1NCCCN1.[Cl-].[Cl-].[Pt+2]` [[Pt(Diaz)4]Cl2]: in the series on MCF7 cells, the IC50 is 19.1 µM.
For the compound `CCN1CCNC1=S.CCN1CCNC1=S.CCN1CCNC1=S.CCN1CCNC1=S.[Cl-].[Cl-].[Pt+2]` [[Pt(EtImt)4]Cl2], the IC50 with MCF7 cells was 11 µM.
On to “cis-(Pt(NH3)2Cl2) [Cisplatin, reference compound]”, for which the IC50 in series [1] came to 3.6 µM; in series [2], 6.3 µM.

(Values after patent publication US10533029B1, “Anticancer trans-diaminoplatinum(II) complexes of selenones” (KING FAHD UNIVERSITY OF PETROLEUM AND MINERALS, priority 2018, dated 2020).)
